According to patent US7230020B2, “11β-hydroxysteroid dehydrogenase inhibitors” (priority 2003, dated 2007):

System: not given
Experiment: not given
Conditions: not given

Compound | melting point [°C]
CC1Nc2cc(NC(=O)c3ccc(-c4ccccc4)cc3)ccc2N1C (stereo not shown) | 272 to 274
CCCc1ccc(C(=O)Nc2ccc3c(c2)nc(C)n3C)cc1 | 214 to 218
Cc1nc2cc(N(C)C(=O)c3ccc(Cl)cc3Cl)ccc2n1C | 245 to 247
CCCc1ccc(C(=O)Nc2ccc3sc(C)nc3c2Cl)cc1 | 184
COc1ccc(CC(=O)Nc2ccc3sc(C)nc3c2Cl)cc1 | 173 to 174
COc1ccc(C(=O)Nc2ccc3sc(C)nc3c2Cl)cc1 | 182
COc1ccc(C(=O)NCCc2cccs2)cc1 | 109 to 111
CCCc1ccc(C(=O)NCCc2cccs2)cc1 | 97 to 99
O=C(NCCc1cccs1)c1cc(Cl)ccc1Cl | 99 to 100
Cc1nc2c(Cl)c(NC(=O)Cc3ccc(Cl)cc3Cl)ccc2s1 | 257 to 258
O=C(Nc1ccc2c(c1)CCC2=O)c1cc(Cl)ccc1Cl | 218 to 221
COc1ccc(C(=O)Nc2ccc3c(c2)CCC3=O)cc1 | 237 to 238
O=C(Nc1ccc(C(=O)c2ccccc2)cc1)c1ccc(-c2ccccc2)cc1 | 212 to 213
COc1cccc(C(=O)Nc2ccc(C(=O)c3ccccc3)cc2)c1 | 139 to 141
CC(=O)c1ccc(NC(=O)c2cc(Cl)cc(Cl)c2)cc1 | 199 to 200
CCCc1ccc(C(=O)Nc2ccc(C(C)=O)cc2)cc1 | 174 to 176
COc1ccc(C(=O)Nc2ccc(C(C)=O)cc2)cc1 | 222 to 223
COc1cccc(C(=O)Nc2ccc(C(C)=O)cc2)c1 | 152 to 154
O=C(Nc1ccc2c(c1)CCCC2=O)c1cc(Cl)cc(Cl)c1 | 226 to 228
COc1ccc(C(=O)Nc2ccc3c(c2)CCCC3=O)cc1 | 163 to 166
COc1cccc(C(=O)Nc2ccc3c(c2)CCCC3=O)c1 | 142 to 143
CCCc1ccc(C(=O)Nc2ccc3sc(C)nc3c2)cc1 | 148 to 149
CCCc1ccc(S(=O)(=O)Nc2ccc(OC)nc2)cc1 | 93 to 94
Cc1cnc2cc(NS(=O)(=O)c3cccc(Cl)c3C)ccc2n1 | 163 to 164
COC(=O)c1cc2cc(NS(=O)(=O)c3cccc(Cl)c3C)ccc2o1 | 168 to 168.4

Biological target: T1, Human 11β HSD1 (Homo sapiens, UniProt P28845)
T1 construct: human hepatic microsomes were obtained from XenoTech, product H0610/Lot 0210078; tissue XenoTech H0610/Lot 0210078; host or cells: human liver (hepatic microsomes)
T1 sequence (P28845 whole entry): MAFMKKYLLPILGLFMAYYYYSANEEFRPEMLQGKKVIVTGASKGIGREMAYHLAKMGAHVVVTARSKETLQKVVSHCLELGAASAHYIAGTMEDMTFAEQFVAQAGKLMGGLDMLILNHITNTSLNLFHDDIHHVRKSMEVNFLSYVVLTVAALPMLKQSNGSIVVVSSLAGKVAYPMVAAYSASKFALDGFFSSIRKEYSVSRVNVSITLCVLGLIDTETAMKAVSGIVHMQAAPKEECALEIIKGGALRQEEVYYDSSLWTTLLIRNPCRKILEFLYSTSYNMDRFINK
Experiment: biochemical
Format: biochemical
Conditions: 350 nM cortisone, 0.3% DMSO, RIA buffer (Buffer 3) (FIG. 23)
Experimental: Standard Operating Procedure for the 11β-Hydroxysteroid Dehydrogenase Type 1 cortisol Radioimmunoassay (11β HSD1 Cortisol RIA).
30 mM Tris-HCL, pH 7.2 containing 1 mM EDTA.
50 mM Tris-HCL, pH 8, containing 0.1 M NaCl and 0.1% gelatin.
Prepare 10 mM stock solutions in 100% DMSO at 100 times the required assay concentration. Dilute into assay buffer 1 in 25. Also dilute neat DMSO 1 in 25 into assay buffer for controls.
Dilute this 1 in 50 into assay buffer.
Prepare NADPH as a 1.8 mg/ml solution in assay buffer.
Mix these 3solutions 1:1:1 to make a solution of sufficient volume for 25 μl additions to each sample. Add 0.5 μCi tritiated cortisone per 25 μl and mix the solution well.
Dilute stock 20 mg/ml solution 1 in 100 with assay buffer.
Dilute stock antibody solution to 17 μg/ml in antibody binding buffer.
Make a 20 mg/ml solution in antibody binding buffer and chill on ice.
To a u-bottom polypropylene 96 well plate add: • 25 μl compound dilution or diluted DMSO to controls, NSB's and blanks • 10 μl 1 mM GA in DMSO (enzyme stop solution) to blanks • 25 μl substrate mixture to all samples • 50 μl diluted microsomes to all samples • Incubate plate for 30 min at 37° C. shaking p0 Add 10 μl enzyme stop solution to all wells except the blanks • Add 100 μl antibody solution to all wells except the NSB's, add antibody binding buffer to these wells • Incubate at 37° C. for 1 h • Chill plate on ice for 15 min • Add 50 μl/well charcoal solution and mix with an 8-channel pipette (4-5 aspirations) • Chill the plate on ice • Centrifuge at 4° C., 2000×g for 15 min • Transfer 100 μl supernatant into an Optiplate, also add 25 μl substrate mixture to 2 empty wells to indicate counting efficiency • Add 200 μl Microscint-40 to all wells and count on a Topcount Radioimmunoassay
The 11β HSD1 enzyme assay was carried out following the standard operating procedure described above in u-bottom polypropylene 96 well plates or 1.5 ml Eppendorf tubes as indicated for each experiment. Subsequent to stopping the enzyme reaction, 100 μl antibody prepared in buffer 3 unless otherwise indicated was added to test samples and 100 μl buffer 3 was added to the NSB samples. The samples were incubated for 1 hour at 37° C. and the chilled on ice for 15 mins. Dextran coated charcoal (50 μl/sample) prepared to the indicated concentration in buffer 3 was added and the samples were mixed (vortex for tubes and aspiration 5 times with an 8-channel pipette for 96 well plates) and chilled for a further 10 min. The samples were centrifuged at 2000×g for 15 min at 4° C. to pellet the charcoal. Aliquots of the supernatant (100 μl) were transferred to an Optiplate and counted on the Topcount in 150-200 μl Microscint 40. In some experiments, aliquots of supernatant were transferred to scintillation vials and counted on the Tricarb LSC in 5 ml Ultima Gold scintillant.

Compound | times more active than is suggested by Barf et al. [14]
CC1(C)[C@@H](OC(=O)CCC(=O)O)CC[C@]2(C)[C@H]3C(=O)C=C4[C@@H]5C[C@@](C)(C(=O)O)CC[C@]5(C)CC[C@@]4(C)[C@]3(C)CC[C@@H]12 [carbenoxolone, Carbenoxolone, reference compound] | about 5 times

Same assay, conditions: read-out: % inhibition of Human 11β HSD1 @10 μM typical sd ± 5% N = 2

Compound | inhibition at 10 µM [%]
CCCc1ccc(C(=O)Nc2ccc3sc(C)nc3c2)cc1 [compound 471] | 53.7
CCCc1ccc(C(=O)N(C)c2ccc3sc(C)nc3c2)cc1 [compound 472] | 71.4
Cc1nc2cc(NC(=O)c3cc(Cl)cc(Cl)c3)ccc2s1 [compound 520] | 43.5
COc1ccc(S(=O)(=O)Nc2ccc(S(=O)(=O)Nc3cc(C)on3)cc2)cc1 [compound 555] | 53
COc1cccc(NC(=O)Nc2ccc(S(=O)(=O)Nc3cc(C)on3)cc2)c1 [compound 556] | 46.2
CC(=O)Nc1ccc(S(=O)(=O)NNC(=O)CSc2ncnc3c(C)csc23)cc1 [compound 557] | 51.3
COc1ccc(S(=O)(=O)Nc2ccc(S(=O)(=O)Nc3nc(C)cc(C)n3)cc2)cc1OC [compound 558] | 31.2
CCCc1ccc(S(=O)(=O)Nc2ccc(OC)nc2)cc1 [compound 577] | 54.6
Cc1cc(NS(=O)(=O)c2ccc(NS(=O)(=O)c3ccc(Cl)cc3Cl)cc2)no1 [compound 644] | 37.1
CC(=O)Nc1ccc(S(=O)(=O)Nc2cc(C)on2)cc1Cl [compound 645] | 42
COc1ccc(S(=O)(=O)Nc2ccc(S(=O)(=O)NCCO)cc2)cc1 [compound 646] | 48.5
COc1ccc(S(=O)(=O)Nc2ccc(S(=O)(=O)NCCOS(=O)(=O)c3ccc(OC)cc3)cc2)cc1 [compound 647] | 34.5
COc1ccc(S(=O)(=O)Nc2ccc(S(=O)(=O)NCCO)cc2)cc1OC [compound 649] | 26.3
COc1cc(C)c(S(=O)(=O)Nc2ccc(S(=O)(=O)NCCOS(=O)(=O)c3c(C)cc(OC)c(C)c3C)cc2)c(C)c1C [compound 652] | 31.8
O=S(=O)(NCCO)c1ccc(NS(=O)(=O)c2ccc(Cl)cc2Cl)cc1 [compound 653] | 36.4
Cc1cc(NS(=O)(=O)c2ccc(N)c(Cl)c2)no1 [compound 654] | 32.1
CCCc1ccc(S(=O)(=O)NCc2ccccn2)cc1 [compound 702] | 37.6
Cc1cc(NS(=O)(=O)c2cc(Cl)ccc2Cl)no1 [compound 823] | 42.9
Cc1cc(NS(=O)(=O)c2cccc(Cl)c2C)no1 [compound 825] | 23.2
Cc1noc2ccc(NS(=O)(=O)c3cc(Cl)ccc3Cl)cc12 [compound 876] | 23.6
CCCc1ccc(S(=O)(=O)Nc2ccc3oncc3c2)cc1 [compound 919] | 25.4

Compound | inhibition at 10 µM [%]
O=S(=O)(Nc1ccc2oncc2c1)c1cc(Cl)ccc1Cl [compound 920] | 27.5
CC(=O)Nc1nsc2ccc(NS(=O)(=O)c3cccc(Cl)c3C)cc12 [compound 929] | 31
Cc1ccc2cc(NS(=O)(=O)c3cccc(Cl)c3C)ccc2n1 [compound 935] | 20.7
CCCc1ccc(S(=O)(=O)Nc2ccc3nc(C)ccc3c2)cc1 [compound 936] | 42.3
Cc1ccc2cc(NS(=O)(=O)c3cc(Cl)ccc3Cl)ccc2n1 [compound 937] | 36.6
Cc1cnc2cc(NS(=O)(=O)c3cccc(Cl)c3C)ccc2n1 [compound 955] | 60.8
CCCc1ccc(S(=O)(=O)Nc2ccc3nc(C)cnc3c2)cc1 [compound 956] | 64.8
Cc1c(Cl)cccc1S(=O)(=O)Nc1ccc2nccnc2c1 [compound 957] | 55.5
CCCc1ccc(S(=O)(=O)Nc2ccc3nccnc3c2)cc1 [compound 958] | 58.1
COC(=O)c1cc2cc(NS(=O)(=O)c3cccc(Cl)c3C)ccc2s1 [compound 971] | 49.6
Cc1c(Cl)cccc1S(=O)(=O)Nc1ccc2occ(C)c2c1 [compound 972] | 59.2
COC(=O)c1cc2cc(NS(=O)(=O)c3cccc(Cl)c3C)ccc2o1 [compound 973] | 33.1
Cc1c(Cl)cccc1S(=O)(=O)Nc1ccc2c(c1)C(=O)N(C)C2=O [compound 979] | 54.1
Cc1c(Cl)cccc1S(=O)(=O)Nc1ccc2c(C)cc(=O)oc2c1 [compound 980] | 61.2
Cc1c(Cl)cccc1S(=O)(=O)Nc1ccc2[nH]ncc2c1 [compound 983] | 41.9
Cc1c(Cl)cccc1S(=O)(=O)Nc1ccc2c(cnn2C)c1 [compound 988] | 56
Cc1c(Cl)cccc1S(=O)(=O)Nc1ccc2c(c1)OCCO2 [compound 990] | 73.3
Cc1c(Cl)cccc1S(=O)(=O)Nc1ccc2scc(C)c2c1 [compound 1015] | 64.6
Cc1nc2cc(CSc3cc(Cl)ccc3Cl)ccc2s1 [compound 1031] | 45.6
Cc1c(Cl)cccc1S(=O)(=O)Nc1ccc2c(c1)-c1ccccc1C2=O [compound 1033] | 62.6
Cc1cc2cc(NS(=O)(=O)c3cccc(Cl)c3C)ccc2o1 [compound 1038] | 28.7

Same assay, conditions: read-out: % inhibition of Human 11β HSD1 @10 μM typical sd ± 5% N = 2; compound 10 μM; human hepatic microsomes; cortisone 175 nM; typical sd ± 5%, N = 2

Compound | inhibition at 10 µM [%]
CCCc1ccc(S(=O)(=O)N(CC2CCNCC2)S(=O)(=O)c2ccc(CCC)cc2)cc1 [compound 576] | 47.7
CC(=O)Nc1ccc(S(=O)(=O)Nc2cc(C)on2)cc1 [compound 606] | 22.1
